pIC50, pKd: −log10 of the molar value.
Assays:
Escherichia coli [1] = assay: Inhibition of ribosome function in a coupled transcription and translational assay using Escherichia coli S30 extracts; type: functional, organism-based
Escherichia coli [2] = assay: Binding affinity to 70S bacterial ribosome isolated from Escherichia coli; type: functional

Row | pIC50 (Escherichia coli [1]) | SMILES | pKd (Escherichia coli [2])
1 | 5.82 | CC[C@H]1OC(=O)[C@H](C)[C@@H](O[C@H]2C[C@@](C)(OC)[C@@H](O)[C@H](C)O2)[C@H](C)[C@@H](O[C@@H]2O[C@H](C)C[C@H](N(C)C)[C@H]2O)[C@](C)(O)C[C@@H](C)[C@H](NC(=O)CCC2=CC3=Cc4c(C)cc(C)n4[B-](F)(F)[N+]3=C2)[C@H](C)[C@@H](O)[C@]1(C)O | 7.52
2 | 6.26 | CC[C@H]1OC(=O)[C@H](C)[C@@H](O[C@H]2C[C@@](C)(OC)[C@@H](OC(=O)NCCNC(=O)CCC3=CC4=Cc5c(C)cc(C)n5[B-](F)(F)[N+]4=C3)[C@H](C)O2)[C@H](C)[C@@H](O[C@@H]2O[C@H](C)C[C@H](N(C)C)[C@H]2O)[C@](C)(O)C[C@@H](C)[C@H](NC(=O)OCc2ccccc2)[C@H](C)[C@@H](O)[C@]1(C)O | 8.82
3 | 6.80 | CC[C@H]1OC(=O)[C@H](C)[C@@H](O[C@H]2C[C@@](C)(OC)[C@@H](OC(=O)NCCNC(=O)CCC3=CC4=Cc5c(C)cc(C)n5[B-](F)(F)[N+]4=C3)[C@H](C)O2)[C@H](C)[C@@H](O[C@@H]2O[C@H](C)C[C@H](N(C)C)[C@H]2O)[C@](C)(OC)C[C@@H](C)C(=O)[C@H](C)[C@@H](O)[C@]1(C)O | > 9.30
4 | 7.10 | CC[C@H]1OC(=O)[C@H](C)[C@@H](O[C@H]2C[C@@](C)(OC)[C@@H](O)[C@H](C)O2)[C@H](C)[C@@H](O[C@@H]2O[C@H](C)C[C@H](N(C)C)[C@H]2O)[C@](C)(O)C[C@@H](C)C(=O)[C@H](C)[C@@H](O)[C@]1(C)O [ERYTHROMYCIN] | 

From ChEMBL document CHEMBL1149416, “Design, synthesis, and biological evaluation of BODIPY-erythromycin probes for bacterial ribosomes” (Bioorg Med Chem Lett, 2006)
